Measured values reported in US9101630B2, “Use of PDGF-R inhibitors for the treatment of lymph node metastasis of gastric cancer” (priority 2010, dated 2015).
Counter-ions that a name gives are not always drawn.

System: TMK-1 human gastric carcinoma cells implanted into the stomachs of nude mice
Experiment: Treatment of established human gastric cancer tumors growing in murine gastric walls; Lyve-1 immunohistochemical determination of the area of lymphatic vessels
Assay type: in vivo, athymic BALB/c nude mice
Conditions: TMK-1 orthotopic gastric tumors in nude mice, imatinib mesylate 50 mg/kg daily oral gavage for 28 days, started 14 days after implantation, versus control (water), P<0.05
Text: Animals and orthotopic implantation of tumor cells. Male athymic BALB/c nude mice (Charles River Japan, Tokyo) were maintained under specific pathogen-free conditions and used at 5 weeks of age. Subconfluent gastric cancer cells (TMK-1 or KKLS cells) to be used for implantation were harvested by brief treatment with 0.25% trypsin and 0.02% ethylenediamine tetraacetic acid, and then re-suspended to a final concentration of 2.0×10^7 cells/mL Hanks' solution. With the use of a 30-gauge needle attached to a 1-mL syringe, cells (1×10^6 cells in 50 μl) were implanted into the gastric walls in the nude mice under observation with a zoom stereomicroscope. […]
Treatment of established human gastric cancer tumors growing in murine gastric walls. Fourteen days after orthotopic implantation of TMK-1 cells, mice (n=10 each group) were randomly assigned to receive one of the following two treatments daily oral gavage of water (control group) or daily oral gavage of imatinib mesylate (50 mg/kg, optimal biological dose as determined previously (Hwang R F, et al. Clin Cancer Res 2003; 9: 6534-44) The treatments continued for 28 days. All therapy experiments were performed twice. The mice bearing orthotopic tumors were euthanised by methophane on day 29. For immunohistochemistry, the tumor tissues were fixed in formalin and embedded in paraffin. […]

Cc1ccc(NC(=O)c2ccc(CN3CCN(C)CC3)cc2)cc1Nc1nccc(-c2cccnc2)n1 [imatinib mesylate]
area of lymphatic vessels in tumors (Lyve-1 immunohistochemistry): reduced areas of lymphatic vessels | area of lymphatic vessels in tumors (Lyve-1 immunohistochemistry) (listed as imatinib): significantly reduced the area of lymphatic vessels
